Laboratory results taken from patent publication US7888360B2, “Pyridine and pyrimidine derivatives as inhibitors of histone deacetylase” (Janssen Pharmaceutica N.V., priority 2006, dated 2011).
In brackets after ≈: the same amount, converted by molar mass. Where two headings read alike, the source gives them in different places.

Legend:
[1] = target: histone deacetylase (HeLa nuclear extracts); assay: In vitro assay for inhibition of histone deacetylase (Fluor de Lys, HeLa nuclear extracts); assay type: biochemical; parameters: key: pIC50 = negative log of IC50; settings: Fluor de Lys substrate
Source text: The HDAC Fluorescent Activity Assay/Drug Discovery Kit of Biomol (cat. No: AK-500-0001) was used. The HDAC Fluorescent Activity Assay is based on the Fluor de Lys (Fluorogenic Histone deAcetylase Lysyl) substrate and developer combination. The Fluor de Lys substrate, comprises an acetylated lysine side chain. Deacetylation of the substrate sensitizes the substrate so that, in the second step, treatment with the Fluor de Lys developer produces a fluorophore.
HeLa nuclear extracts (supplier: Biomol) were incubated at 60 μg/ml with 75 μM of substrate. The Fluor de Lys substrate was added in a buffer containing 25 mM Tris, 137 mM NaCl, 2.7 mM KCl and 1 mM MgCl2.6H2O at pH 7.4. After 30 min, 1 volume of the developer was added. The fluorophore was excited with 355 nm light and the emitted light (450 nm) was be detected on a fluorometric plate reader.
For each experiment, controls (containing HeLa nuclear extract and buffer), a blank incubation (containing buffer but no HeLa nuclear extract) and samples (containing compound dissolved in DMSO and further diluted in buffer and HeLa nuclear extract) were run in parallel. In first instance, compounds were tested at a concentration of 10^−5M. […] All sample were tested 4 times. In each test the blank value was subtracted from both the control and the sample values. The control sample represented 100% of substrate deactylation. For each sample the fluorescence was expressed as a percentage of the mean value of the controls. […] Herein the effects of test compounds are expressed as pIC50 (the negative log value of the IC50-value) (see Table F-2).

[2] = system: A2780 ovarian carcinoma cells; assay: Antiproliferative activity on A2780 cells (MTT); assay type: cell-based, human; settings: four days of incubation; for IC50: Homo sapiens, A2780, 96 h, read-out: Cellular activity pIC50 C.2. (converted)
Protocol: All compounds tested were dissolved in DMSO and further dilutions were made in culture medium. Final DMSO concentrations never exceeded 0.1% (v/v) in cell proliferation assays. Controls contained A2780 cells and DMSO without compound and blanks contained DMSO but no cells. MTT was dissolved at 5 mg/ml in PBS. A glycine buffer comprised of 0.1 M glycine and 0.1 M NaCl buffered to pH 10.5 with NaOH (1 N) was prepared (all reagents were from Merck).
The human A2780 ovarian carcinoma cells (a kind gift from Dr. T. C. Hamilton [Fox Chase Cancer Centre, Pa., USA]) were cultured in RPMI 1640 medium supplemented with 2 mM L-glutamine, 50 μg/ml gentamicin and 10% fetal calf serum. Cells were routinely kept as monolayer cultures at 37° C. in a humidified 5% CO2 atmosphere. Cells were passaged once a week using a trypsin/EDTA solution at a split ratio of 1:40. All media and supplements were obtained from Life Technologies. Cells were free of mycoplasma contamination as determined using the Gen-Probe Mycoplasma Tissue Culture kit (supplier: BioMérieux).
Cells were seeded in NUNC™ 96-well culture plates (Supplier: Life Technologies) and allowed to adhere to the plastic overnight. Densities used for plating were 1500 cells per well in a total volume of 200 μl medium. After cell adhesion to the plates, medium was changed and drugs and/or solvents were added to a final volume of 200 μl. Following four days of incubation, medium was replaced by 200 μl fresh medium and cell density and viability was assessed using an MTT-based assay. To each well, 25 μl MTT solution was added and the cells were further incubated for 2 hours at 37° C. The medium was then carefully aspirated and the blue MTT-formazan product was solubilized by addition of 25 μl glycine buffer followed by 100 μl of DMSO. […] Within an experiment, the results for each experimental condition are the mean of 3 replicate wells. For initial screening purposes, compounds were tested at a single fixed concentration of 10^−6 M. For active compounds, the experiments were repeated to establish full concentration-response curves. For each experiment, controls (containing no drug) and a blank incubation (containing no cells or drugs) were run in parallel. The blank value was subtracted from all control and sample values. For each sample, the mean value for cell growth (in absorbance units) was expressed as a percentage of the mean value for cell growth of the control. […] Herein the effects of test compounds are expressed as pIC50 (the negative log value of the IC50-value) (see Table F-2).

[3] = Kinetic solubility in aqueous media C.3.b (BD Gentest Solubility Scanner); assay type: physicochemical; settings: aqueous buffer
Protocol: DMSO-stock solutions from 5000-9.8 μM (1/2 dilutions) are made in DMSO in a 96 well stock solution plate (200 μl per well). After each dilution the samples are mixed. Aliquots of these DMSO solutions (2 μl) are then transferred into 2 other 96 well buffer plates, containing 200 μl per well aqueous buffer. Each of the buffer plates contains either aqueous buffer pH 7.4 or aqueous buffer pH 4.0. After the last dilution the buffer plates are mixed and the samples are stabilized at room temperature for ½ hour. Dilution is done in duplicate for each compound to exclude occasional errors. Mixtures are then scanned in the BD Gentest Solubility Scanner for the occurrence of precipitation. Based on the absence/presence of precipitate in the mixtures the kinetic solubility is calculated by interpolation. Ranking is performed into the 3 classes. […] (see Table F-2).

[4] = Solubility C.3.c (chemiluminescent nitrogen detector); assay type: physicochemical; settings: aqueous buffer; pH = 2.3; read-out: Solubility C.3.c. pH = 2.3 mg/ml
Source text: The solubility of a compound, at different pH's, can also be measured with the use of a chemiluminescent nitrogen detector (see Table F-2).

[5] = not given; remark: listed apart in the source
[6] = Kinetic solubility in aqueous media C.3.a (nephelometer); assay type: physicochemical; settings: aqueous buffer, kinetic from dmso stock; phosphate citrate buffer pH 7.4, turbidity score
Protocol: In the first dilution step, 10 μl of a concentrated stock-solution of the active compound, solubilized in DMSO (5 mM), was added to 100 μl phosphate citrate buffer pH 7.4 and mixed. In the second dilution step, an aliquot (20 μl) of the first dilution step was further dispensed in 100 μl phosphate citrate buffer pH 7.4 and mixed. Finally, in the third dilution step, a sample (20 μl) of the second dilution step was further diluted in 100 μl phosphate citrate buffer pH 7.4 and mixed. All dilutions were performed in 96-well plates. Immediately after the last dilution step the turbidity of the three consecutive dilution steps were measured with a nephelometer. Dilution was done in triplicate for each compound to exclude occasional errors. Based on the turbidity measurements a ranking is performed into 3 classes. Compounds with high solubility obtained a score of 3 and for this compounds the first dilution is clear. Compounds with medium solubility obtained a score of 2. For these compounds the first dilution is unclear and the second dilution is clear.

[7] = system: p21 promoter reporter A2780 clone tumour; assay: p21 induction in vivo method C.6.c (tumour fluorescence in nude mice); settings: dosed orally or intravenously daily during 6 days, 20-40 mpk
Protocol: Another method tests the capacity of compounds to induce p21 as the consequence of HDAC inhibition at the cellular level. […] The reporter gene is a fluorescent protein and the expression of the reporter gene is measured as the amount of fluorescent light emitted (see example C.6.b.). The last method is an in vivo method wherein mice are used for screening the pharmaceutical activity of a compound. The above described stably transformed tumour cells can be administered to mice in an amount sufficient to effect production of a tumour. After the tumour cells had sufficient time to form a tumour, a potentially active compound can be administered to the animals and the effect of said compound on the tumour cells is evaluated by measuring the expression of the reporter gene. Incubation with pharmaceutical active compounds will result in an increase of reporter gene expression compared to the control levels (see example C.6.c.)
A selected clone was injected subcutaneous (10^7 cells/200 μl) into the flank of nude mice and a calliper measurable tumour was obtained after 12 days. […] Tumours were evaluated for fluorescence by the in-house developed Automated Whole Body Imaging System (Fluorescent stereomicroscope type Olympus® SZX12 equipped with a GFP filter and coupled to a CCD camera type JAI® CV-M90 controlled by a software package based on the IMAQ Vision Software from National Instruments®).

[8] = kinetic from dmso stock, pH = 4, score, read-out: Solubility C.3.b pH = 4.
[9] = pH 7.4, kinetic from dmso stock, pH = 7, score, read-out: Solubility C.3.b. pH = 7

% metabolism (human, 15 min, 5 μM) [%]	Enzymatic activity pIC50 C.1. [1]	IC50 [2] [nM]	solubility at 0.5 h [3, 8] [µM]	solubility at 0.5 h [3, 9] [µM]	solubility [4] [µg/mL]	melting point [5] [°C]	solubility [6] [µM]	Cellular activity pIC50 C.2. [2]	SMILES	tumour fluorescence (p21 reporter) in vivo [7]	% metabolism (after 15 min of incubation with active microsomes, compound 5 μM) [%]
–	7.9	39.8	–	–	900 (≈ 2.1 mM)	163 to 171	> 455	–	CC(C)(C)c1ccc([C@H]([C@H](O)CO)N2CCN(c3ncc(C(=O)NO)cn3)CC2)cc1 [Compound 6]	comparable to R306465	–
–	9.7	20	≤ 10	≤ 10	–	–	–	–	O=C(NO)c1cnc(N2CCN(C(CO)c3ccc4ccccc4c3)CC2)nc1 (stereo not drawn) [Compound 7]	–	–
–	9.0	31.6	10 to 50 (≈ 3.83 to 19.2 µg/mL)	10 to 50 (≈ 3.83 to 19.2 µg/mL)	2200 (≈ 5.74 mM)	–	–	–	O=C(NO)c1cnc(N2CCN(C(CO)c3cc4ccccc4o3)CC2)nc1 (stereo not drawn) [Compound 8]	–	–
–	9.8	50.1	–	–	–	–	–	–	O=C(NO)c1cnc(N2CCN(C(CO)c3csc4ccccc34)CC2)nc1 (stereo not drawn) [Compound 9]	–	–
–	7.0	–	–	–	–	–	> 455	7.1	CC(C)(C)c1ccc(C(C(O)CO)N2CCN(c3ncc(C(=O)NO)cn3)CC2)cc1 (stereo not drawn) [Compound 10]	–	–

Continued, molecule first:

SMILES	% metabolism (human, 15 min, 5 μM) [%]	Enzymatic activity pIC50 C.1. [1]	IC50 [2] [nM]	solubility at 0.5 h [3, 8] [µM]	solubility at 0.5 h [3, 9] [µM]	solubility [4] [µg/mL]	melting point [5] [°C]	solubility [6] [µM]	Cellular activity pIC50 C.2. [2]	tumour fluorescence (p21 reporter) in vivo [7]	% metabolism (after 15 min of incubation with active microsomes, compound 5 μM) [%]
COc1cc(N)c(Cl)cc1C(=O)NC1CCN(CCCOc2ccc(F)cc2)CC1OC (stereo not drawn) [Cisapride]	45	–	–	–	–	–	–	–	–	–	–
O=C(NO)c1cnc(N2CCN(C(CO)c3cccc4ccccc34)CC2)nc1 (stereo not drawn) [Compound 1]	–	10.0	100	10 to 50 (≈ 3.93 to 19.7 µg/mL)	10 to 50 (≈ 3.93 to 19.7 µg/mL)	2900 (≈ 7.37 mM)	136	–	–	–	–
O=C(NO)c1cnc(N2CCN(C(CO)c3cc4ccccc4s3)CC2)nc1 (stereo not drawn) [Compound 2]	–	10.1	15.8	≤ 10	10 to 50 (≈ 3.99 to 20 µg/mL)	3250 (≈ 8.14 mM)	165	–	–	–	–
O=C(NO)c1cnc(N2CCN(C(CO)c3cn(S(=O)(=O)c4ccccc4)c4ccccc34)CC2)nc1 (stereo not drawn) [Compound 3]	–	>9	< 31.6	10 to 50 (≈ 5.23 to 26.1 µg/mL)	10 to 50 (≈ 5.23 to 26.1 µg/mL)	–	206	–	–	–	–
CCN(CC1CCN(c2ncc(C(=O)NO)cn2)CC1)C(CO)c1cc2ccccc2o1 (stereo not drawn) [Compound 4]	–	7.9	251	≤ 10	10 to 50 (≈ 4.4 to 22 µg/mL)	–	90	–	–	–	–
CC(C)(C)c1ccc(C(C(O)CO)N2CCN(c3ncc(C(=O)NO)cn3)CC2)cc1 (stereo not drawn) [Compound 5]	–	7.5	100	–	–	1390 (≈ 3.24 mM)	138 to 154	–	–	–	–
CCCO [propanol]	–	–	–	–	–	–	–	–	–	–	25
